This passage reports IC50 and IC90 results from PubChem BioAssay AID449762 (Southern Research Specialized Biocontainment Screening …, 2010).

pIC50: −log10 of the molar value. Records with an inconclusive call do not appear.

By pIC50 is commonly meant the IC50 on a negative log10 scale, so that one unit is a factor of ten. By IC90 is commonly meant the concentration needed for an effect of 90%.

In this assay the test system is M. tuberculosis H37Rv growth inhibition, 7H9 media. Description: M. tuberculosis growth inhibition, HTS (AID 449762).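 For all read-outs here: bacterial growth assessed after seven days of incubation.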 The conditions noted are these: for IC90: measured here: IC90 growth inhibition.

For the compound `CC(=NCc1ccc2c(c1)OCO2)C1=C(O)c2ccccc2C1=O`, the pIC50 is 5.96 and the IC90 was > 100 µM. Regarding `CN(C)S(=O)(=O)c1cccc(NC(=O)CSc2cccc3cccnc23)c1`, the pIC50 was 4.23 and the 90% effect concentration (IC90) turned out to be 65.1 µM. On to `CCOc1ccc(C(=O)CCN2CCCCCC2)cc1`, for which the pIC50 is 4.93 and the IC90 stood at 17.4 µM.

As to `CCOC(=O)c1c(-c2ccc(OC)cc2)csc1NC(=O)CNCc1ccco1`, the negative-log IC50 (pIC50) was 4.96 and the IC90 was determined as 16.4 µM. The like results for `O=C(COC(=O)C1=COCCO1)NCc1ccc(Cl)cc1` were, in that order, 4.83 and > 100 µM. Take `C(=N\Nc1ncnc2sc3c(c12)CCC3)/c1cccs1`: the pIC50 was 5.23 and the IC90 is 16.8 µM. `COC(=O)C1CC(=O)N(c2ccc(OCc3ccccc3Cl)cc2)C1` (configuration not stated): the pIC50 is 6.28 and the IC90 stood at 3.52 µM.

Regarding `O=C(OCC(=O)N1CCC(c2ccccc2)=N1)c1ccc(Cl)s1`, the pIC50 is 4.67 and the 90% effect concentration (IC90) was > 25 µM. For `COC1=CC(=O)c2ccccc2C1=O`, the pIC50 was 4.80 and the IC90 is 21.9 µM. Regarding `COc1ccc(-c2cc(-c3ccccc3)c(C#N)c(S(C)=O)n2)cc1` (configuration not stated), the negative-log IC50 (pIC50) is 4.82 and the IC90 is 29 µM. On to `CCOc1ccc(-n2c(-c3ccc(Br)cc3)c[n+]3c2CCCCC3)cc1`, for which the pIC50 is 4.16 and the IC90 was > 100 µM. The corresponding values for `CC(C)Nc1nc(NC(C)C)nc(N(C)N)n1` are 5.24 and 7.57 µM.

In the case of `Cc1cccc(N(C(=O)c2nsc(Cl)c2Cl)C(C(=O)NC2CCCC2)c2ccc(O)cc2)c1C` (configuration not stated), the pIC50 is 4.66 and the IC90 amounted to 28.2 µM. In the case of `COC(=O)C1=C(C)N(Cc2ccccc2)C(=NCc2cccc(Cl)c2)N[C@H]1c1ccccc1`, the pIC50 is 4.78 and the IC90 turned out to be 21 µM. Take `O=C(CSCc1ccc([N+](=O)[O-])cc1)N/N=C/c1ccncc1`: the pIC50 is 5.46 and the IC90 was determined as 10.3 µM. Take `COc1ccc(/C(O)=C/Sc2nnc(Cc3ccccc3)o2)cc1`: the pIC50 is 4.58 and the IC90 is > 100 µM. `Cc1ccc(-c2nc3ccsc3c(=O)o2)cc1`: the negative-log IC50 (pIC50) is 6.21 and the IC90 is > 100 µM. The like results for `CCC1=C(OC(=O)N(CC)CC)N2C(=O)OC(=NCCc3c[nH]c4ccccc34)[C@]2(Cc2ccccc2)[C@H]2C1=CC[C@H]1C(=O)NC(=O)[C@H]12` were, in that order, 4.51 and 44.8 µM. Turning to `O=C(Nc1ccccc1)C1=C[C@@H](C2CCCCC2)C[C@@H](OCc2ccc(CO)cc2)O1`, the negative-log IC50 (pIC50) is 4.35 and the IC90 stood at 50.2 µM. Take `O=C(N/N=C\c1ccc[nH]1)c1cncc(Br)c1`: the pIC50 is 4.60 and the IC90 turned out to be 49 µM.

As to `CN(C)c1ccc(CNC2C3CC4CC(C3)CC2C4)cc1` (configuration not stated), the pIC50 was 4.93 and the IC90 was found to be 13 µM. Consider `CCc1ccc(-c2csc(-c3c[nH]c4ccccc34)n2)cc1`, for which the negative-log IC50 (pIC50) was 4.97 and the 90% effect concentration (IC90) turned out to be 21.7 µM. Take `CCC(=O)N1c2ccc(S(=O)(=O)CCC(=O)N3CCn4c3nc3ccccc34)cc2CC1C` (configuration not stated): the pIC50 was 5.03 and the IC90 was 19.5 µM.

Consider `N#CC1=C(c2ccccc2)/C(=C/c2ccccc2)OC1=O`, for which the pIC50 is 4.99 and the 90% effect concentration (IC90) stood at 20.1 µM. As to `Cc1cc(/C=C\c2ccc3cc(N(C)C)ccc3[n+]2C)c(C)n1-c1ccccc1`, the pIC50 is 5.73 and the 90% effect concentration (IC90) stood at 3.19 µM. In the case of `CCOc1ccc(-c2cc(CCCC(=O)NCCC(C)C)no2)cc1`, the pIC50 is 5.19 and the IC90 worked out at 14.3 µM. Turning to `Cc1ccc(-c2noc(C3CCCN(C(=O)c4ccc(C(C)(C)C)cc4)C3)n2)o1` (configuration not stated), the pIC50 is 4.32 and the IC90 worked out at 55.2 µM. Turning to `CCCn1nc(C(=O)NNC(=O)c2ccc(C)c(C)c2)c2ccccc2c1=O`, the pIC50 was 4.95 and the concentration for an effect of 90% (IC90) was found to be 15.9 µM.

Consider `O=C1CCC(=O)N1CNc1ccc(Oc2ccccc2)cc1`, for which the IC90 is > 100 µM.
